Several values for one entry are separate records, joined by “and”; a condition that tells them apart may be missing. Equal entries are not always repeated. Structures can show the parent of a compound that is named as a salt.
Test: Pharmacokinetic study in humans, sodium salt in enteric capsules, single and multiple dose (Example 2)
Type: in vivo, human
Method: An open, randomised, parallel-group study in healthy volunteers (hereafter referred to as subjects) was conducted to evaluate the exposure of 4-chloro-N-[2-[(4-chlorophenyl)methyl]-3-oxo-1,2,4-thiadiazol-5-yl]benzamide after single and multiple dose administration of 3 dose levels of the sodium salt of 4-chloro-N-[2-[(4-chlorophenyl)methyl]-3-oxo-1,2,4-thiadiazol-5-yl]benzamide and to evaluate combination with dapagliflozin at steady state.
For the study, Vcaps enteric capsules, size 0, were individually filled with 200 mg of milled test material together with 2 mg of sodium docusate, 125 mg of mannitol and 6.5 mg of sodium lauryl sulfate. […]
A screening visit (Visit 1) was performed within 28 days before randomisation and the start of IMP administration. The subjects were confined to the research clinic from the evening before Day 1 (Visit 2; Day—1). […]
Pre-dose safety assessments as well as pre- and post-dose PK assessments were performed. The subjects left the clinic after the last PK-sample on Day 1 and returned for a 24 h PK sample and dosing on Day 2 (Visit 3).
Subjects self-administered the test material at home from Day 3 to Day 15. A telephone visit to check compliance, AE status and use of concomitant medications will be performed on Day 8 (Visit 4).
The subjects returned to the clinic on Days 16 and 17 (Visits 5 and 6), for PK sampling and AE assessment. Visit 6 continued in the evening of Day 17, when the subjects were confined to the clinic until Day 18. On Day 18, pre- and post-dose PK and safety assessments were performed. The subjects left the clinic after the last PK sample on Day 18 and returned for a 24 h PK sample and dosing on Day 19 (Visit 7).
On Day 19 (Visit 7) subjects began co-administration of the test material and dapagliflozin (Forxiga), 10 mg per day for 7 days (Day 19 to Day 25). The subjects returned to the clinic on Day 25 (Visit 8) for final dosing, PK and safety assessments. A final end-of-study visit (Visit 9) for follow-up of safety assessments was conducted 28 days (+14 days) after Visit 8 or after early withdrawal.
Venous blood samples (approximately 5 mL) for the determination of plasma concentrations of 4-chloro-N-[2-[(4-chlorophenyl)methyl]-3-oxo-1,2,4-thiadiazol-5-yl]benzamide after administration of the test material were collected through an indwelling venous catheter on Days 1, 2, 16 to 19 and 25.
The blood samples were collected in pre-labelled Li-Heparin tubes. All the collected blood samples were be centrifuged at 1500 G for 10 minutes to separate plasma within 60 minutes from the sample is drawn. The separated plasma from each blood sample was be divided into 2 aliquots in pre-labelled polypropylene cryotubes (A and B samples, approximately 750 μL in each tube) and frozen at <−70° C. On Day 25, the plasma was divided in to 3 aliquots of at least 500 μL (A and B samples for the test material, and 1 sample for potential future analysis of dapagliflozin).
Samples for determination of plasma concentrations of 4-chloro-N[2-[(4-chlorophenyl)methyl]-3-oxo-1,2,4-thiadiazol-5-yl]benzamide were analysed by Lablytica Life Science AB, Uppsala, Sweden by means of a validated LS-MS/MS method.
The data of plasma concentration to respective time points for the analyte (4-chloro-N-[2-[(4-chlorophenyl)methyl]-3-oxo-1,2,4-thiadiazol-5-yl]benzamide) were used for the pharmacokinetic analysis. Pharmacokinetic analysis was performed using non-compartmental analysis (NCA) module of Phoenix WinNonlin 8.1 software to determine the following pharmacokinetic parameters.
After single dose administration of test material: • AUC0-24, Cmax, Tmax and dose proportionality (based on AUC0-24 and Cmax) (secondary endpoints). […]

[1] = 400 mg Dose Group, capsules once daily, Day 18, Geometric Mean
[2] = 400 mg Dose Group, capsules once daily, Day 18, Mean
[3] = 400 mg Dose Group, capsules once daily, Day 18, Median
[4] = 400 mg Dose Group, capsules once daily, Day 18, individual subjects, listed as test material
[5] = 800 mg Dose Group, capsules once daily, Day 18, Geometric Mean
[6] = 800 mg Dose Group, capsules once daily, Day 18, Mean
[7] = 800 mg Dose Group, capsules once daily, Day 18, Median
[8] = 800 mg Dose Group, capsules once daily, Day 18, individual subjects, listed as test material
[9] = 2000 mg Dose Group, capsule once daily, Day 18, Geometric Mean
[10] = 2000 mg Dose Group, capsule once daily, Day 18, Mean
[11] = 2000 mg Dose Group, capsule once daily, Day 18, Median
[12] = 2000 mg Dose Group, capsule once daily, Day 18, individual subjects, listed as test material
[13] = capsule once daily, Day 18, individual subjects, listed as test material
[14] = dose-normalised, 400 mg Dose Group, capsules once daily, Day 18, Geometric Mean
[15] = dose-normalised, 400 mg Dose Group, capsules once daily, Day 18, Mean
[16] = dose-normalised, 400 mg Dose Group, capsules once daily, Day 18, Median
[17] = dose-normalised, 400 mg Dose Group, capsules once daily, Day 18, individual subjects, listed as test material
[18] = dose-normalised, 800 mg Dose Group, capsules once daily, Day 18, Geometric Mean
[19] = dose-normalised, 800 mg Dose Group, capsules once daily, Day 18, Mean
[20] = dose-normalised, 800 mg Dose Group, capsules once daily, Day 18, Median
[21] = dose-normalised, 800 mg Dose Group, capsules once daily, Day 18, individual subjects, listed as test material
[22] = dose-normalised, 2000 mg Dose Group, capsule once daily, Day 18, Geometric Mean

increase in systemic exposure compared to a standard suspension of the active ingredient (200 mg of the sodium salt): up to five-fold | CLss_F [1]: 267.1 mL/h | Clast [1]: 62.75 µg/mL | Tlast [1]: 23.93 h | CLss_F [2]: 271.8 mL/h | Clast [2]: 64.03 µg/mL | Tlast [2]: 23.93 h | CLss_F [3]: 286.3 mL/h | Clast [3]: 60.9 µg/mL | Tlast [3]: 23.93 h | Tlast [4]: 23.9 h (6×) and 24 h | CLss_F [5]: 316.5 mL/h | Tlast [5]: 23.92 h | CLss_F [6]: 321.8 mL/h | Tlast [6]: 23.92 h | CLss_F [7]: 292.8 mL/h | Tlast [7]: 23.92 h | Tlast (800 mg Dose Group, capsules once daily, Day 18, individual subjects): 23.9 h | CLss_F [9]: 202.7 mL/h | Clast [9]: 42.19 µg/mL | Tlast [9]: 23.92 h | CLss_F [10]: 207.9 mL/h | Tlast [10]: 23.92 h | CLss_F [11]: 210.5 mL/h | Clast [11]: 38.7 µg/mL | Tlast [11]: 23.92 h | Tlast (capsule once daily, Day 18, individual subjects): 23.9 h | accumulation in the blood plasma after repeat dosing (capsules, 200-800 mg once daily): substantial accumulation | AUC_TAU_D [14]: 3.744 µg·h/mL/mg | AUClast_D [14]: 3.788 µg·h/mL/mg | Cmax_D [14]: 0.1741 µg/mL/mg | AUC_TAU_D [15]: 3.816 µg·h/mL/mg | AUClast_D [15]: 3.852 µg·h/mL/mg | Cmax_D [15]: 0.1769 µg/mL/mg | AUC_TAU_D [16]: 3.504 µg·h/mL/mg | AUClast_D [16]: 3.703 µg·h/mL/mg | Cmax_D [16]: 0.1653 µg/mL/mg | AUC_TAU_D [18]: 3.159 µg·h/mL/mg | AUClast_D [18]: 3.24 µg·h/mL/mg | Cmax_D [18]: 0.1472 µg/mL/mg | AUC_TAU_D [19]: 3.205 µg·h/mL/mg | AUClast_D [19]: 3.274 µg·h/mL/mg | Cmax_D [19]: 0.1482 µg/mL/mg | AUC_TAU_D [20]: 3.416 µg·h/mL/mg | AUClast_D [20]: 3.337 µg·h/mL/mg | Cmax_D [20]: 0.1525 µg/mL/mg | AUC_TAU_D [22]: 4.934 µg·h/mL/mg | AUClast_D [22]: 5.139 µg·h/mL/mg | Cmax D [22]: 0.2432 µg/mL/mg | AUC_TAU_D (dose-normalised, 2000 mg Dose Group, capsule once daily, Day 18, Mean): 5.082 µg·h/mL/mg
SMILES: O=C(Nc1nc(=O)n(Cc2ccc(Cl)cc2)s1)c1ccc(Cl)cc1 [Compound of formula II, sodium salt of 4-chloro-N-[2-[(4-chlorophenyl)methyl]-3-oxo-1,2,4-thiadiazol-5-yl]benzamide]
AUC_TAU [4]: 1300 µg·h/mL and 1750 µg·h/mL and 1480 µg·h/mL and 1320 µg·h/mL and 2100 µg·h/mL | AUClast [4]: 1290 µg·h/mL and 1740 µg·h/mL and 1480 µg·h/mL and 1320 µg·h/mL and 2090 µg·h/mL and 1650 µg·h/mL | CLss_F [4]: 330 mL/h and 308 mL/h and 229 mL/h and 270 mL/h and 303 mL/h and 191 mL/h | Clast [4]: 54.7 µg/mL and 50.4 µg/mL and 73.2 µg/mL and 60.9 µg/mL and 49.2 µg/mL and 86.9 µg/mL and 72.9 µg/mL | Tmax [4]: 12 h and 2 h and 3 h and 0.25 h and 23.9 h | AUC_TAU [8]: 2500 µg·h/mL and 2910 µg·h/mL and 2730 µg·h/mL and 2870 µg·h/mL | AUClast [8]: 2490 µg·h/mL and 2900 µg·h/mL and 2620 µg·h/mL and 2980 µg·h/mL and 2720 µg·h/mL and 2580 µg·h/mL and 2860 µg·h/mL | CLss_F [8]: 442 mL/h and 321 mL/h and 275 mL/h and 293 mL/h and 279 mL/h | Clast [8]: 98 μg/ml and 120 μg/ml and 115 μg/ml (2×) and 127 μg/ml and 110 μg/ml and 117 μg/ml | Cmax [8]: 118 µg/mL and 127 µg/mL and 115 µg/mL and 130 µg/mL and 126 µg/mL and 117 µg/mL and 128 µg/mL | Tmax [8]: 9.98 h and 0 h and 23.9 h and 10 h and 6 h | AUC_TAU [12]: 1130 µg·h/mL and 841 µg·h/mL and 1600 µg·h/mL and 802 µg·h/mL and 950 µg·h/mL and 774 µg·h/mL and 1010 µg·h/mL | CLss_F [12]: 176 mL/h and 238 mL/h and 125 mL/h and 249 mL/h and 210 mL/h and 259 mL/h and 198 mL/h | Tmax [12]: 0.267 h and 23.9 h and 0 h and 10 h and 12 h | AUClast [13]: 1130 µg·h/mL and 1400 µg·h/mL and 838 µg·h/mL and 1600 µg·h/mL and 800 µg·h/mL and 947 µg·h/mL and 772 µg·h/mL and 1010 µg·h/mL | Clast [13]: 47 µg/mL and 62 µg/mL and 33.5 µg/mL and 68 µg/mL and 33.3 µg/mL and 36.7 µg/mL and 30.4 µg/mL and 40.7 µg/mL | Cmax [13]: 52.1 µg/mL and 62 µg/mL and 42 µg/mL and 71.9 µg/mL and 40.2 µg/mL and 46.2 µg/mL and 34.6 µg/mL and 49.9 µg/mL | AUC_TAU_D [17]: 3.03 µg·h/mL/mg and 3.24 µg·h/mL/mg and 4.37 µg·h/mL/mg and 3.71 µg·h/mL/mg and 3.3 µg·h/mL/mg and 5.24 µg·h/mL/mg | AUClast_D [17]: 3.02 µg·h/mL/mg and 3.23 µg·h/mL/mg and 4.36 µg·h/mL/mg and 3.7 µg·h/mL/mg and 3.29 µg·h/mL/mg and 5.23 µg·h/mL/mg and 4.13 µg·h/mL/mg | Cmax_D [17]: 0.141 µg/mL/mg and 0.15 µg/mL/mg and 0.193 µg/mL/mg and 0.165 µg/mL/mg and 0.161 µg/mL/mg and 0.248 µg/mL/mg and 0.182 µg/mL/mg | AUC_TAU_D [21]: 2.26 µg·h/mL/mg and 3.12 µg·h/mL/mg and 3.64 µg·h/mL/mg and 3.27 µg·h/mL/mg and 3.42 µg·h/mL/mg and 3.59 µg·h/mL/mg | AUClast_D [21]: 2.25 µg·h/mL/mg and 3.11 µg·h/mL/mg and 3.63 µg·h/mL/mg and 144 µg·h/mL/mg and 3.73 µg·h/mL/mg and 3.4 µg·h/mL/mg and 3.22 µg·h/mL/mg and 3.58 µg·h/mL/mg | Cmax_D [21]: 0.109 µg/mL/mg and 0.148 µg/mL/mg and 0.159 µg/mL/mg and 0 µg/mL/mg and 0.163 µg/mL/mg and 0.158 µg/mL/mg and 0.146 µg/mL/mg and 0.16 µg/mL/mg

— US20240082222A1, “4-CHLORO-N-[2-[(4-CHLOROPHENYL)METHYL]-3-OXO-1,2,4-THIADIAZOL-5-YL]BENZAMIDE FOR USE IN MEDICINE” (Betagenon AB, priority 2021, published 2024)
